Test results published in the NIST ThermoML archive (doi:10.1016/j.tca.2015.01.022).

Conditions: for molar entropy: 101.33 kPa, Small (less than 1 g) adiabatic calorimetry

CCCCn1cc[n+](C)c1.F[B-](F)(F)F [1-butyl-3-methylimidazolium tetrafluoroborate]
Conditions	Glass transition temperature [°C]
Glass, Adiabatic calorimetry	-92

CCCCCCCC[n+]1ccn(C)c1.F[B-](F)(F)F [1-methyl-3-octylimidazolium tetrafluoroborate]
Conditions	Glass transition temperature [°C]	Triple point temperature [K]	molar entropy [J/K/mol]
0 K, Glass	–	–	13.9
5 K, Crystal	–	–	0.507
5 K, Glass	–	–	14.5
10 K, Crystal	–	–	3.61
10 K, Glass	–	–	18
15 K, Crystal	–	–	9.69
15 K, Glass	–	–	24.5
20 K, Crystal	–	–	17.96
20 K, Glass	–	–	33.1
25 K, Crystal	–	–	27.66
25 K, Glass	–	–	43.1
30 K, Crystal	–	–	38.29
30 K, Glass	–	–	54.1
35 K, Crystal	–	–	49.44
35 K, Glass	–	–	65.5
40 K, Crystal	–	–	60.82
40 K, Glass	–	–	77.1
45 K, Crystal	–	–	72.28
45 K, Glass	–	–	88.7
50 K, Crystal	–	–	83.73
50 K, Glass	–	–	100.3
60 K, Crystal	–	–	106.3
60 K, Glass	–	–	123.1
70 K, Crystal	–	–	128.1
70 K, Glass	–	–	145.2
80 K, Crystal	–	–	149.2
80 K, Glass	–	–	166.7
90 K, Crystal	–	–	169.5
90 K, Glass	–	–	187.6
100 K, Crystal	–	–	189.1
100 K, Glass	–	–	207.9
110 K, Crystal	–	–	208
110 K, Glass	–	–	227.7
120 K, Crystal	–	–	226.3
120 K, Glass	–	–	247
130 K, Crystal	–	–	244.2
130 K, Glass	–	–	265.9
140 K, Crystal	–	–	261.5
140 K, Glass	–	–	284.4
150 K, Crystal	–	–	278.4
150 K, Glass	–	–	302.8
160 K, Crystal	–	–	295
160 K, Glass	–	–	320.9
170 K, Crystal	–	–	311.3
170 K, Glass	–	–	338.9
180 K, Crystal	–	–	327.5
180 K, Glass	–	–	356.9
190 K, Crystal	–	–	343.6
190 K, Glass	–	–	375.5
200 K, Crystal	–	–	359.6
200 K, Liquid	–	–	398.7
210 K, Crystal	–	–	375.6
210 K, Liquid	–	–	421.4
220 K, Crystal	–	–	391.5
220 K, Liquid	–	–	442.9
230 K, Crystal	–	–	407.4
230 K, Liquid	–	–	463.6
240 K, Crystal	–	–	423.2
240 K, Liquid	–	–	483.5
245.81 K, Crystal	–	–	432.4
245.81 K, Liquid	–	–	494.7
250 K, Liquid	–	–	502.7
260 K, Liquid	–	–	521.3
270 K, Liquid	–	–	539.4
280 K, Liquid	–	–	557
290 K, Liquid	–	–	574.3
298.15 K, Liquid	–	–	588
300 K, Liquid	–	–	591.1
310 K, Liquid	–	–	607.5
320 K, Liquid	–	–	623.7
330 K, Liquid	–	–	639.5
340 K, Liquid	–	–	655
350 K, Liquid	–	–	670.3
360 K, Liquid	–	–	685.3
370 K, Liquid	–	–	700.1
Crystal, Adiabatic calorimetry	–	245.81	–
Glass, Adiabatic calorimetry	-83	–	–

CCOS(=O)(=O)[O-].CCn1cc[n+](C)c1 [1-ethyl-3-methylimidazolium ethyl sulfate]
Conditions	Glass transition temperature [°C]
Glass, Adiabatic calorimetry	-88
